Assay results: patent EP4660196A1, “CRYSTAL FORM OF COMPOUND, PREPARATION METHOD THEREFOR AND USE THEREOF” (Felicamed Biotechnology Co., Ltd., priority 2023, dated 2024)
Values joined by “and” are separate entries in the source; they are usually repeats but may differ in a detail not shown here. Equal entries are not always repeated. Where two headings read alike, the source gives them in different places.

Experiments:
[1] = DVS
Procedure: DVS isotherms were collected on an SMS (Surface Measurement Systems) DVS Intrinsic. Relative humidity at 25°C was calibrated using the deliquescence points of LiCl, Mg(NO3)2, and KCl. Table 9 DVS testing parameters

[2] = Solid-state stability (XRPD, UPLC purity); conditions: for Crystal form Transform: XRPD; for Purity (area%): starting purity 99.82 (hydrochloride), 99.72 (free); for Area (%): UPLC main peak (#Peak 1, RRT 1.00)
[3] = Mechanical stability (grinding, tableting at 350 MPa, XRPD); type: physicochemical
[4] = type: physicochemical; conditions: for S: solubility: 1440 min; for FC: crystal transfer: XRPD of solid; for pH: pH of filtrate
[5] = for Carr index: (tapped density - bulk density) / tapped density; for Average angle of repose (°) / Average bulk density / Average tapped density: mean of three tests
Procedure: A method for testing the density and the tapped density included: (1) a certain mass of to-be-assessed sample was placed into a 5 mL measuring cylinder, and the volume at this moment was recorded. The bulk density was calculated by dividing the mass of the sample by the volume at this moment. (2) The measuring cylinder was slightly tapped 200 times, the final volume was recorded, and the tapped density was calculated by dividing the mass of the sample by the final volume. (3) Three parallel tests were conducted. A method for testing the angle of repose included: (1) a funnel was fixed vertically to a bottom surface, and the material was slowly placed into the funnel. (2) A well-proportioned cone of the material was formed on the bottom surface. The height and bottom surface diameter of the cone were measured. (3) Three parallel tests were conducted.
Angle of repose α = […], where h is the cone height, and D is the cone diameter.

[6] = Pharmacokinetics of free crystal form A in Beagle dogs (i.v. and intragastric); type: in vivo; conditions: dog
Procedure: Preparations were administered to the group C on the second day to the seventh day were prepared in the same way as that on the first day.
All the animals in this experiment were randomly divided into 4 groups (3 dogs/sex/group). The animals in the group A, the group B, and the group D were fasted before administration, and the animals in the group C were fasted before the first administration and the last administration. All the animals were fasted for at least 12 h before administration, and food was resumed 4 h after administration. All the animals had free access to water and food during the experiment. Table 25 Animal groups and administration methods
The animals in the group A were intravenously injected with the drug at 2 mg/kg, and blood samples were collected from the jugular vein before and 0.033 h, 0.083 h, 0.25 h, 0.5 h, 1 h, 2 h, 4 h, 8 h, 12 h, and 24 h after administration. The animals in the group B and the group D received single intragastric administration of the drugs at 2 mg/kg and 20 mg/kg, respectively, and blood samples were collected from the jugular vein before and 0.083 h, 0.25 h, 0.5 h, 1 h, 2 h, 4 h, 8 h, 12 h, and 24 h after administration. […] Blood samples were collected from the jugular vein before the first administration and the seventh administration and 0.083 h, 0.25 h, 0.5 h, 1 h, 2 h, 4 h, 8 h, 12 h, and 24 h after administration. Blood samples were collected from the jugular vein before administration and 0.5 h after administration from the second administration to the sixth administration. The sample collected before the second administration was the sample collected 24 h after the first administration.
The blood samples from the animals were collected through the jugular vein, with a blood sample volume of 0.5 mL/time. All collected whole blood samples were placed in centrifuge tubes containing ethylene diamine tetraacetic acid potassium salt (EDTA-K2), and the centrifuge tubes were turned upside down to allow the anticoagulant and blood to be fully mixed. All the samples were placed on wet ice before centrifugation and centrifuged at 1524 g for 10 min to separate plasma. The plasma samples were transferred to new centrifuge tubes and stored at -90°C to […] until analysis.
The drug concentration in the plasma of each Beagle dog was determined by liquid chromatography with tandem mass spectrometry (LC-MS/MS). The obtained plasma concentration data was analyzed by using the pharmacokinetic processing software WinNonlin 8.0 with a non-compartmental model to calculate relevant pharmacokinetic parameters.

[7] = single values of three parallel tests

## CC[S@@](=N)(=O)C[C@H]1CC[C@H](N(C)c2ncnc3[nH]ccc23)CC1 [Free crystal form A]
[1]
  Hygroscopic weight gain (wt%) at 25°C/80% RH: 0.39 wt%
[1]; listed as free crystal form A
  Hygroscopic weight gain (wt%) at 25°C/80% RH: 0.39 wt%
[2]; 25°C/60% RH/4 weeks, open
  Crystal form Transform: No
  Purity (area%): 99.71 area%
[2]; 40°C/75% RH/4 weeks, open
  Crystal form Transform: No
  Purity (area%): 99.72 area%
[2]; 80°C/1 d, closed
  Crystal form Transform: No
[2]; 25°C/60% RH/4 weeks
  Area (%): 99.71%
[2]; 40°C/75% RH/4 weeks
  Area (%): 99.72%
[2]; 80°C/1 d
  Area (%): 99.71%
[3]; manual grinding
  Results of mechanical stability After grinding: The crystal form remains unchanged, but the crystallinity is slightly reduced
[3]; tablet press, 350 MPa
  Results of mechanical stability After tableting: The crystal form remains unchanged, but the crystallinity is slightly reduced
[4]; Buffer (pH=4.5), room temperature, 24 h, calculated as free form
  S: solubility: >9100 µg/mL
[4]; Buffer (pH=2.0), 24 h
  FC: crystal transfer: No
[4]; Buffer (pH=7.4), 24 h
  FC: crystal transfer: No
[4]; buffer, pH 2, 1440 min
  S: solubility: 6200 µg/mL
[4]; buffer, pH 4.5, 1440 min
  S: solubility: > 9100 µg/mL
[4]; Buffer (pH=2.0), room temperature, 24 h
  pH: 5.6
[4]; Buffer (pH=4.5), room temperature, 24 h
  pH: 5.0
[4]; Buffer (pH=7.4), room temperature, 24 h
  pH: 7.4
[5]
  Carr index: 51%
  Average angle of repose (°): 47.1 °
  Average bulk density: 0.11 g/mL
  Average tapped density: 0.23 g/mL
[5]; listed as free crystal form A
  Carr index: 51%
  Average angle of repose (°): 47.1 °
  Average bulk density: 0.11 g/mL
  Average tapped density: 0.23 g/mL
[5]; [7]
  Angle of repose (°): 49.0 ° and 47.3 ° and 45.0 °
  Bulk density: 0.11 g/mL
[5]; tapped 200 times, single values of three parallel tests
  Tapped density: 0.23 g/mL and 0.22 g/mL
[6]; in vivo
  AUC0-t of the unit dose: 4380 ng·kg·h/mL/mg and 4990 ng·kg·h/mL/mg and 5030 ng·kg·h/mL/mg
  clinical observation: no obvious abnormalities were found
  male-to-female ratio of AUC0-t: 1.10 and 0.716 and 0.877
  male-to-female ratio of Cmax: 1.36 and 0.810 and 0.894
  ratio of AUC0-t of the seventh administration and the first administration: 0.887
  ratio of Cmax of the seventh administration and the first administration: 0.964
  unit dose AUC0-t ratio of 20 mg/kg and 2 mg/kg: 1.15
  unit dose Cmax: 675 kg·ng/mL/mg and 785 kg·ng/mL/mg and 665 kg·ng/mL/mg
  unit dose Cmax ratio of 20 mg/kg and 2 mg/kg: 0.985
[6]; in vivo, iv, 2 mg/kg
  steady-state volume of distribution (Vdss) relative to total body fluid volume: 1.57 times
  total clearance (CL) relative to liver blood flow: 0.110 times
[6]; plasma, po, read-out: average time to peak drug concentration
  Tmax: 0.792 to 1.33 h
